Laboratory results from ChEMBL document CHEMBL1201862, “PubChem BioAssay data set” (2004).
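Results reflect a 48-hour exposure of cells in 96-well plates to compound at five concentrations. The concentration for 50% growth inhibition is given as GI50.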 Active and inactive are the calls of the source. No stated cut-off is given here; in the data, active = GI50 up to about 1.1 µM and inactive = higher.

Key:
Test in all cases: NCI anticancer screen, dose series, 48 h
[1] = tested on: A498
[2] = tested on: RXF 393
[3] = tested on: HT-29
[4] = tested on: SNB-75
[5] = tested on: ACHN
[6] = tested on: OVCAR-3
[7] = tested on: NCI/ADR-RES
[8] = tested on: NCI-H23
[9] = tested on: K562
[10] = tested on: MDA-MB-231
[11] = tested on: Malme-3M
[12] = tested on: NCI-H522
[13] = tested on: SK-OV-3
[14] = tested on: T47D
[15] = tested on: OVCAR-8
[16] = tested on: HCT-15
[17] = tested on: SNB-19
[18] = tested on: UO-31
[19] = tested on: COLO 205
[20] = tested on: MDA-MB-435
[21] = tested on: NCI-H226
[22] = tested on: 786-0
[23] = tested on: SF-295
[24] = tested on: DU-145
[25] = tested on: CAKI-1
[26] = tested on: A549
[27] = tested on: UACC-257
[28] = tested on: SF-539
[29] = tested on: HOP-92
[30] = tested on: SK-MEL-5
[31] = tested on: U-251
[32] = tested on: TK-10
[33] = tested on: RPMI-8226
[34] = tested on: HCT-116
[35] = tested on: EKVX
[36] = tested on: LOX IMVI
[37] = tested on: KM12
[38] = tested on: SN12C
[39] = tested on: IGROV-1
[40] = tested on: HOP-62
[41] = tested on: BT-549
[42] = tested on: SF-268
[43] = tested on: OVCAR-5
[44] = tested on: M14
[45] = tested on: SK-MEL-28
[46] = tested on: MDA-N
[47] = tested on: OVCAR-4
[48] = tested on: NCI-H460
[49] = tested on: SW-620
[50] = tested on: MOLT-4
[51] = tested on: SK-MEL-2
[52] = tested on: UACC-62
[53] = tested on: PC-3
[54] = tested on: HCC 2998
[55] = tested on: MCF7
[56] = tested on: HL-60
[57] = tested on: CCRF-CEM
[58] = tested on: SR

Measured: GI50

N#CC(c1cc(Cl)ncn1)c1nc2ccccc2s1 (stereo unspecified)
inactive: [1] 21.8 µM | [2] 16.1 µM | [3] 10.3 µM | [4] 13.6 µM | [5] 18.3 µM | [6] 7.01 µM | [7] 3.29 µM | [8] 5.04 µM | [9] 4.93 µM | [10] 11.1 µM | [11] 10.8 µM | [12] 2.07 µM | [13] 14.8 µM | [14] 2.67 µM | [15] 3.85 µM | [17] 5.93 µM | [18] 16.6 µM | [19] 14.8 µM | [20] 18.1 µM | [21] 25.8 µM | [22] 3.77 µM | [23] 15.6 µM | [24] 5.56 µM | [25] 18.6 µM | [26] 27.8 µM | [27] 10.5 µM | [28] 5.42 µM | [29] 3.57 µM | [30] 16.4 µM | [31] 4.02 µM | [32] 4.81 µM | [33] 2.49 µM | [34] 7.53 µM | [35] 20.9 µM | [36] 4.72 µM | [37] 3.87 µM | [38] 2.61 µM | [39] 6.92 µM | [40] 14.1 µM | [41] 5 µM | [42] 5.25 µM | [43] 18.1 µM | [44] 17.1 µM | [45] 19.3 µM | [46] 6.03 µM | [47] 6.46 µM | [48] 4.27 µM | [49] 4.62 µM | [50] 3.42 µM
3.74 µM: [16]

CN1C(=O)[C@@]2(C=CC3(CC2)OCCO3)c2ccccc21
inactive: [51] > 50 µM | [1] > 50 µM | [2] > 50 µM | [3] > 50 µM | [4] > 25.9 µM | [5] 49.5 µM | [6] > 50 µM | [7] > 50 µM | [8] 21.8 µM | [9] > 50 µM | [10] > 50 µM | [12] 8.53 µM | [13] > 50 µM | [14] 35 µM | [15] > 50 µM | [52] > 50 µM | [17] > 50 µM | [18] > 50 µM | [19] > 50 µM | [20] > 45 µM | [21] > 50 µM | [22] > 50 µM | [53] > 45.4 µM | [23] > 50 µM | [24] > 50 µM | [25] > 50 µM | [26] > 50 µM | [27] > 50 µM | [29] > 50 µM | [54] > 50 µM | [30] > 50 µM | [31] > 50 µM | [32] > 50 µM | [33] > 50 µM | [55] 48.5 µM | [34] > 50 µM | [35] 49.2 µM | [36] > 50 µM | [37] > 37.5 µM | [38] > 50 µM | [40] > 32.1 µM | [41] > 50 µM | [56] 35.7 µM | [42] 10.3 µM | [43] > 50 µM | [44] > 50 µM | [45] > 50 µM | [46] > 50 µM | [47] > 50 µM | [57] > 50 µM | [58] > 50 µM | [48] > 50 µM | [49] > 50 µM | [50] > 46.3 µM
> 48.2 µM: [16]
active: [39] 0.48 µM
